Source: ChEMBL document CHEMBL4265910, “(E)-N-Aryl-2-oxo-2-(3,4,5-trimethoxyphenyl)acetohydrazonoyl cyanides as tubulin polymerization inhibitors: Structure-based bioisosterism design, synthesis, biological evaluation, molecular docking and in silico ADME prediction” (Bioorg Med Chem Lett, 2018)
One block for each compound: values may come before it.

What was measured:
[1] = tested on: HeLa; assay: Antiproliferative activity against human HeLa cells after 72 hrs by MTT assay; assay type: functional, cell-based
[2] = tested on: HCT-116; assay: Antiproliferative activity against human HCT116 cells after 72 hrs by MTT assay; assay type: functional, cell-based; settings: HCT-116, 72 h
[3] = tested on: DU-145; assay: Antiproliferative activity against human DU145 cells after 72 hrs by MTT assay; assay type: functional, cell-based; settings: DU-145, 72 h
[4] = tested on: B16-F10; assay: Antiproliferative activity against mouse B16F10 cells after 72 hrs by MTT assay; assay type: functional, cell-based; settings: B16-F10, 72 h
[5] = Antiproliferative activity against human HCT8/T cells after 72 hrs by MTT assay; assay type: functional, cell-based; settings: HCT-8, 72 h
[6] = tested on: MDA-MB-231; assay: Antiproliferative activity against human MDA-MB-231 cells after 72 hrs by MTT assay; assay type: functional, cell-based; settings: MDA-MB-231, 72 h
[7] = tested on: HepG2; assay: Antiproliferative activity against human HepG2 cells after 72 hrs by MTT assay; assay type: functional, cell-based; settings: HepG2, 72 h
[8] = tested on: MCF7; assay: Antiproliferative activity against human MCF7 cells after 72 hrs by MTT assay; assay type: functional, cell-based; settings: MCF7, 72 h
[9] = tested on: A2780S; assay: Antiproliferative activity against human A2780S cells; assay type: functional, cell-based
[10] = tested on: MCF7; assay: Antiproliferative activity against human MCF7 cells; assay type: functional, cell-based
[11] = tested on: HepG2; assay: Antiproliferative activity against human HepG2 cells; assay type: functional, cell-based
[12] = tested on: SK-OV-3; assay: Antiproliferative activity against human SKOV3 cells; assay type: functional, cell-based
[13] = tested on: A549; assay: Antiproliferative activity against human A549 cells; assay type: functional, cell-based
[14] = tested on: CHL-1; assay: Antiproliferative activity against human CHL-1 cells; assay type: functional, cell-based
[15] = tested on: HT-29; assay: Antiproliferative activity against human HT-29 cells; assay type: functional, cell-based
[16] = tested on: HepG2; assay: Cell cycle arrest in human HepG2 cells assessed as accumulation at G2/M phase at 0.5 uM after 24 hrs by RNase A/propidium iodide staining-based flow cytometric analysis (reference value: 21.09%); assay type: functional
[17] = tested on: HepG2; assay: Cell cycle arrest in human HepG2 cells assessed as accumulation at S phase at 0.5 uM after 24 hrs by RNase A/propidium iodide staining-based flow cytometric analysis (reference value: 28.30%); assay type: functional
[18] = species on record: Sus scrofa; assay: (§1) Inhibition of tubulin polymerization in porcine brain assessed as disruption of tubulin assembly by spectrophotometric analysis
[19] = as §1; parameters: species or system Sus scrofa
[20] = tested on: HepG2; assay: Cell cycle arrest in human HepG2 cells assessed as accumulation at S phase at 0.25 uM after 24 hrs by RNase A/propidium iodide staining-based flow cytometric analysis (reference value: 28.30%); assay type: functional
[21] = tested on: HepG2; assay: Cell cycle arrest in human HepG2 cells assessed as accumulation at G1 phase at 0.25 uM after 24 hrs by RNase A/propidium iodide staining-based flow cytometric analysis (reference value: 50.61%); assay type: functional
[22] = tested on: HepG2; assay: Cell cycle arrest in human HepG2 cells assessed as accumulation at G2/M phase at 0.25 uM after 24 hrs by RNase A/propidium iodide staining-based flow cytometric analysis (reference value: 21.09%); assay type: functional
[23] = tested on: HepG2; assay: Cell cycle arrest in human HepG2 cells assessed as accumulation at G2/M phase after 24 hrs by RNase A/propidium iodide staining-based flow cytometric analysis; assay type: functional
[24] = tested on: HepG2; assay: Cell cycle arrest in human HepG2 cells assessed as accumulation at G1 phase at 0.5 uM after 24 hrs by RNase A/propidium iodide staining-based flow cytometric analysis (reference value: 50.61%); assay type: functional

IC50 [1]: 220 nM
IC50 [2]: 3190 nM
IC50 [3]: 120 nM
IC50 [4]: 3260 nM
IC50 [6]: 2460 nM
IC50 [7]: 440 nM
IC50 [8]: 280 nM
SMILES: COc1ccc(N/N=C(\C#N)C(=O)c2cc(OC)c(OC)c(OC)c2)cc1
IC50 [5]: 4620 nM

IC50 [7]: 9710 nM
IC50 [8]: 9840 nM
SMILES: COc1cc(C(=O)/C(C#N)=N/Nc2ccc(F)cc2)cc(OC)c1OC

IC50 [7]: > 10000 nM
IC50 [8]: > 10000 nM
SMILES: CCOc1ccccc1N/N=C(\C#N)C(=O)c1cc(OC)c(OC)c(OC)c1

IC50 [7]: > 10000 nM
IC50 [8]: > 10000 nM
SMILES: COc1cc(N/N=C(\C#N)C(=O)c2cc(OC)c(OC)c(OC)c2)cc(OC)c1OC

IC50 [7]: > 10000 nM
IC50 [8]: > 10000 nM
SMILES: COc1cc(C(=O)/C(C#N)=N/Nc2ccc(Cl)cc2Cl)cc(OC)c1OC

IC50 [1]: 310 nM
IC50 [2]: 870 nM
IC50 [3]: 98 nM
IC50 [4]: 2230 nM
IC50 [6]: 2240 nM
IC50 [7]: 610 nM
IC50 [8]: 430 nM
SMILES: COc1cc(C(=O)/C(C#N)=N/Nc2ccc(C)cc2)cc(OC)c1OC
IC50 [5]: 7640 nM

IC50 [7]: 6460 nM
IC50 [8]: 8820 nM
SMILES: COc1cccc(N/N=C(\C#N)C(=O)c2cc(OC)c(OC)c(OC)c2)c1

IC50 [7]: 5190 nM
IC50 [8]: 6380 nM
SMILES: COc1cc(C(=O)/C(C#N)=N/Nc2ccccc2)cc(OC)c1OC

IC50 [9]: 1880 nM
IC50 [10]: 1840 nM
IC50 [11]: 1200 nM
IC50 [12]: 1270 nM
IC50 [13]: 2090 nM
IC50 [7]: 1380 nM
IC50 [15]: 1280 nM
IC50 [8]: 1930 nM
SMILES: COc1ccc(N/C=C(\C#N)C(=O)c2cc(OC)c(OC)c(OC)c2)cc1
IC50 [14]: 1220 nM

IC50 [1]: 81 nM
inhibition [18]: Dose-dependent effect
IC50 [19]: 900 nM
IC50 [2]: 810 nM
IC50 [3]: 77 nM
IC50 [4]: 2110 nM
IC50 [6]: 720 nM
IC50 [7]: 320 nM
IC50 [8]: 260 nM
SMILES: COc1ccc(N/N=C(\C#N)C(=O)c2cc(OC)c(OC)c(OC)c2)cc1O
Activity [16]: 94.12%
Activity [17]: 5.43%
Activity [20]: 17.01%
Activity [21]: 4.09%
Activity [22]: 78.89%
IC50 [5]: 3960 nM
Activity [23]: Dose-dependent effect
Activity [24]: 0.45%

SMILES: COc1cc2c(c(OC)c1OC)-c1ccc(OC)c(=O)cc1[C@@H](NC(C)=O)CC2 [COLCHICINE]
IC50 [1]: 8.89 nM
IC50 [2]: 26.2 nM
IC50 [3]: 3.45 nM
IC50 [4]: 44.2 nM
IC50 [5]: 227 nM
IC50 [6]: 77.6 nM

IC50 [7]: 6620 nM
IC50 [8]: 7010 nM
SMILES: CCOc1ccc(N/N=C(\C#N)C(=O)c2cc(OC)c(OC)c(OC)c2)cc1

IC50 [7]: > 10000 nM
IC50 [8]: > 10000 nM
SMILES: COc1cc(C(=O)/C(C#N)=N/Nc2ccc([N+](=O)[O-])cc2)cc(OC)c1OC

IC50 [7]: 2100 nM
IC50 [8]: 1690 nM
SMILES: COc1cc(C(=O)/C(C#N)=N/Nc2ccccc2F)cc(OC)c1OC

IC50 [7]: 2680 nM
IC50 [8]: 3020 nM
SMILES: COc1cc(C(=O)/C(C#N)=N/Nc2ccc(C(F)(F)F)cc2)cc(OC)c1OC

IC50 [7]: 6110 nM
IC50 [8]: 5890 nM
SMILES: COc1cc(C(=O)/C(C#N)=N/Nc2cccc(C)c2)cc(OC)c1OC
